In brackets after ≈: the same amount, converted by molar mass.

The source of these data is PubChem BioAssay AID1996.

For the data set the following is noted: buffer; pH 7.4; 200.0 µM.
Turning to `CN1CCN(c2nc(-c3cccc([N+](=O)[O-])c3)nc3ccccc23)CC1`, the solubility (kinetic) (as a rule, solubility judged after dilution from a stock solution rather than from solid) is 8.5 µg/mL (≈ 24.3 µM).

`CCCCNC(=O)c1cc(C)nc2ccccc12` had a solubility (kinetic) above 36.3 µg/mL.

Regarding `Cn1c(SCC(=O)Nc2cccnc2Cl)nnc1-c1ccco1`, the solubility (kinetic) was above 52.5 µg/mL.

`O=C(c1ccccc1)N1C(=O)C(c2ccccc2)Oc2ccccc21` (stereo not given) returned a solubility (kinetic) of 3.1 µg/mL (≈ 9.41 µM).

Turning to `COc1ccc(OC)c(S(=O)(=O)NCCCc2ccccc2)c1`, the solubility (kinetic) amounted to 27.4 µg/mL (≈ 81.7 µM).

Compound `O=C(CN1CCN(c2ccc([N+](=O)[O-])cc2Cl)CC1)N1CCOCC1` came in with a kinetic solubility of 54.9 µg/mL (≈ 149 µM).

In the case of `O=C(NC1CCCCC1)C(=S)N1CCCC1`, the kinetic solubility is above 36.1 µg/mL.

For `O=C(NN=C1CCCC1)C1COc2ccccc2O1` (stereo not given), the kinetic solubility is above 39 µg/mL.

Take `COc1ccc(NC(=O)Oc2ccccc2)cc1Cl`: the solubility (kinetic) was determined as 18.4 µg/mL (≈ 66.3 µM).

On to `Cl.c1ccc([C@H]2CN3CCSC3=N2)cc1`, for which the kinetic solubility was above 36.1 µg/mL.

The compound `CC(=O)Nc1nnc(SCC(=O)NC2CC2)s1` registered a solubility (kinetic) above 40.9 µg/mL.

On to `Cc1ccccc1Nc1nc(N)nc(CSc2nncn2C)n1`, for which the solubility (kinetic) is above 49.3 µg/mL.

Turning to `O=C(NCCc1ccccc1)c1ccc2c(c1)OCCO2`, the kinetic solubility is above 42.5 µg/mL.

`CC(C)C/C(=N/O)c1cn(C)c2ccccc12` gave a solubility (kinetic) of 21.5 µg/mL (≈ 93.4 µM).

`CC(Oc1ccc(F)cc1)C(O)CCN(C)C` (stereo not given): the kinetic solubility came out at 25.8 µg/mL (≈ 107 µM).

Compound `Cc1cnc([N+](=O)[O-])n1CCOC(=O)c1cccc(F)c1` yielded a solubility (kinetic) above 44 µg/mL.

The compound `O=C(NCCOc1ccccc1)C(=O)NCC1CCCO1` (stereo not given) returned a solubility (kinetic) above 43.9 µg/mL.

`Cc1cc(C)cc(NC(=O)N2CCC(NC(=O)c3ccco3)CC2)c1` came in with a kinetic solubility of 44.4 µg/mL (≈ 130 µM).

The compound `COc1nc(OCC#N)nc(N2CCCCC2)n1` registered a solubility (kinetic) of 31.6 µg/mL (≈ 127 µM).

With `O=C(c1c(F)cccc1F)N1CCCC1`, the kinetic solubility is above 31.7 µg/mL.

`COc1ccc(S(=O)(=O)N2CN3CCN(C3)C2)cc1` returned a kinetic solubility above 42.5 µg/mL.

On to `COC(=O)/C=C1\SC(N)=NC1=O`, for which the solubility (kinetic) was above 27.9 µg/mL.

`Cn1c(NN)nc2ccccc2c1=O`: the kinetic solubility was above 28.5 µg/mL.

The compound `CNC(=O)c1ccccc1Sc1ccccc1CO` registered a solubility (kinetic) of 40.3 µg/mL (≈ 147 µM).

In turn, `O=C(Nc1cccc([N+](=O)[O-])c1)NC1CCS(=O)(=O)C1` (stereo not given) yielded a kinetic solubility above 44.9 µg/mL.

Take `O=C(c1cc(S(=O)(=O)N2CCOCC2)c(Cl)cc1Cl)N1CCN(S(=O)(=O)c2cccc(F)c2)CC1`: the kinetic solubility turned out to be 20.8 µg/mL (≈ 36.7 µM).

`C=CCN1CCN(C(=O)c2cc3c(s2)CCC(CC)C3)CC1` (stereo not given) registered a kinetic solubility of 46.3 µg/mL (≈ 145 µM).

Regarding `CC(=NCc1ccco1)c1c(O)n(-c2ccccc2C)c(=O)[nH]c1=O`, the solubility (kinetic) was above 50.9 µg/mL.

In the case of `COc1ccc(N2CCC(CNC(=O)Nc3cccc(OC)c3)C2)cc1` (stereo not given), the solubility (kinetic) worked out at 34.5 µg/mL (≈ 97.1 µM).

Compound `COc1ccc(NC(=O)CCC(=O)c2cc(C)sc2C)cc1` registered a kinetic solubility of 6.3 µg/mL (≈ 19.8 µM).

Take `Cc1ccc(S(=O)(=O)N(C)C)cc1NC(=O)CN1CCCC1`: the kinetic solubility was above 48.8 µg/mL.

Compound `Cc1csc(NC(=O)CCCC(=O)c2ccccc2)n1` came in with a kinetic solubility above 43.3 µg/mL.

The compound `CCOCCCNC(c1ccccc1)c1ccncc1` (stereo not given) yielded a solubility (kinetic) of 38 µg/mL (≈ 141 µM).

Turning to `Cn1ccsc1=NC(=O)c1ccc(=O)[nH]c1`, the solubility (kinetic) was determined as 30.6 µg/mL (≈ 130 µM).

`S=C(Nc1ccccc1)N1CCN(Cc2ccccc2)CC1` returned a solubility (kinetic) above 46.7 µg/mL.

Take `CSCC[C@H](NC(=O)c1ccc(OCC2CCCO2)cc1)c1nc2ccccc2[nH]1` (stereo not given in full): the kinetic solubility turned out to be 56.9 µg/mL (≈ 134 µM).

As to `O=S(=O)(c1ccc2c(c1)CCN2)N1CCOCC1`, the kinetic solubility was above 40.2 µg/mL.

The compound `Cc1cccc(NC(=O)N2C[C@H]3C[C@@H](C2)c2cccc(=O)n2C3)c1` had a solubility (kinetic) above 48.5 µg/mL.

Take `O=C(CCCCl)NC(=S)Nc1ccc(N2CCOCC2)cc1`: the solubility (kinetic) came to 11.4 µg/mL (≈ 33.3 µM).

The compound `Cc1ccc(-n2c(C)cc(/C=C3\SC(=O)NC3=O)c2C)cc1` displayed a solubility (kinetic) below 0.3 µg/mL.

In turn, `N#CCSc1nc2ccccc2c(=O)n1CCCC(=O)NCc1ccco1` gave a solubility (kinetic) of 2.5 µg/mL (≈ 6.54 µM).

With `CNC(=S)NC1CC2CCCC(C1)N2Cc1ccccc1OC` (stereo not given), the kinetic solubility is above 50 µg/mL.

In turn, `CCC1C(=O)C(CC)C(c2ccccc2)NC1c1ccccc1` (stereo not given) came in with a kinetic solubility of 4.3 µg/mL (≈ 14 µM).

For the compound `Clc1ccc(-c2nc(NCCCN3CCOCC3)c3ccccc3n2)cc1`, the kinetic solubility came out at 1.4 µg/mL (≈ 3.66 µM).

`CC(C)Oc1nc(-c2ccccc2Cl)nc2ccccc12` showed a kinetic solubility of 0.4 µg/mL (≈ 1.34 µM).

For `Cc1cccc2c(=O)cc(C)n(CC(N)=O)c12`, the kinetic solubility was above 34.5 µg/mL.

`COCCNC(=O)/C(C#N)=C/c1ccc(O)c([N+](=O)[O-])c1` came in with a kinetic solubility above 43.7 µg/mL.

Regarding `Cc1csc(NC(=O)c2ccc3ccccc3n2)n1`, the solubility (kinetic) stood at 4 µg/mL (≈ 14.9 µM).

Turning to `CCOc1cccc(C2C(C(=O)c3ccc(C)o3)=C(O)C(=O)N2Cc2ccccc2)c1` (stereo not given), the solubility (kinetic) is 62.5 µg/mL (≈ 150 µM).

For `Nc1ncnc(NC2CCS(=O)(=O)C2)c1[N+](=O)[O-]` (stereo not given), the solubility (kinetic) was above 41 µg/mL.

`CN(C)c1cccc(C(=O)NCc2ccccc2)c1` showed a solubility (kinetic) above 38.1 µg/mL.

In turn, `CC(=O)c1ccc(NC(=O)CNC2CCCCC2)cc1.Cl` gave a kinetic solubility of 38.4 µg/mL.

Compound `CCC(C(=O)Nc1nc(C)c(C(=O)OC)s1)c1ccccc1` (stereo not given) displayed a kinetic solubility of 22.6 µg/mL (≈ 71 µM).

For the compound `COc1ccc2nc(C)cc(N3CCN(c4ccccc4)CC3)c2c1`, the solubility (kinetic) stood at 2.7 µg/mL (≈ 8.1 µM).

Regarding `Cc1cc(C(=O)N(C)Cc2c(F)cccc2Cl)c2ccccc2n1`, the kinetic solubility is 42.4 µg/mL (≈ 124 µM).

As for `Cc1cccc(CCNC(=O)c2oc3c(C)c(C)ccc3c2C)n1`, the solubility (kinetic) is 1.9 µg/mL (≈ 5.89 µM).

In turn, `COc1ccc(CN(C)CC(=O)NC(C)c2ccccc2)cc1OC` (stereo not given) registered a kinetic solubility above 51.4 µg/mL.

In the case of `N#CCCN1C(=O)C2(OCCO2)c2ccccc21`, the solubility (kinetic) is above 36.6 µg/mL.

`Cc1cccc(NC(=O)CSc2nc3ccccc3c(=O)n2CC2CCCO2)c1` (stereo not given) came in with a solubility (kinetic) of 4.2 µg/mL (≈ 10.3 µM).

`Cn1c(N)c(C(=O)CN2CCc3ccccc3C2)c(=O)n(C)c1=O` displayed a solubility (kinetic) above 49.3 µg/mL.

Compound `Nc1ncncc1-c1ccc(Cl)cc1` had a solubility (kinetic) above 30.8 µg/mL.

`Cc1ccc2cc(CCNC(=O)CCCc3ccccc3)c(=O)[nH]c2c1` displayed a kinetic solubility of 2.2 µg/mL (≈ 6.31 µM).

The compound `O=C(CSc1nc(-c2ccccc2)cc(=O)[nH]1)Nc1ccccc1F` displayed a solubility (kinetic) below 0.2 µg/mL.

Consider `CCNc1nc(NC(C)C)nc(N(C#N)C(C)C(=O)N(CC)CC)n1` (stereo not given), for which the solubility (kinetic) is above 52.3 µg/mL.

Consider `O=C(Nc1nc2ccc(F)cc2s1)Oc1ccccc1`, for which the kinetic solubility was found to be 1.7 µg/mL (≈ 5.9 µM).

The compound `NC(=O)c1ccccc1NC(=O)COC(=O)CSCc1cccc(Cl)c1` displayed a solubility (kinetic) of 10.8 µg/mL (≈ 27.5 µM).

The compound `COc1ccccc1N1CCN(CCN2C(=O)C3CCCN3C2=O)CC1` (stereo not given) had a solubility (kinetic) of 40.7 µg/mL (≈ 114 µM).

As for `CC(NCc1ccccc1Cl)C(=O)Nc1ccc(C#N)cc1` (stereo not given), the solubility (kinetic) stood at 44.5 µg/mL (≈ 142 µM).

Turning to `Cc1[nH]c2ccccc2c1C(=O)CN1C(=O)C(=O)N(C2CCCC2)C1=O`, the solubility (kinetic) worked out at 3.2 µg/mL (≈ 9.06 µM).

`COC(=O)c1sccc1NC(=O)Nc1ccc(OC)cc1` yielded a kinetic solubility of 40 µg/mL (≈ 131 µM).

Regarding `CN1CCc2c(OCC(=O)N3CCCc4ccccc43)cccc2C1=O`, the kinetic solubility is above 52.6 µg/mL.

Consider `O=C(Nc1ccc(Cl)c(Cl)c1)Nc1ccccc1O`, for which the kinetic solubility was found to be 8.5 µg/mL (≈ 28.6 µM).

Compound `CC(C)c1cccc(C(C)C)c1NC(=O)c1ccccc1` yielded a kinetic solubility of 1.7 µg/mL (≈ 6.04 µM).

In the case of `CCNC(=S)N1CCC(C(N)=O)CC1`, the solubility (kinetic) was above 32.3 µg/mL.

For the compound `Fc1ccc(Br)cc1SCCc1ccncc1`, the kinetic solubility amounted to 19.7 µg/mL (≈ 63.1 µM).
